Series [1] has as its system HIV-1.
In series [2] the test system is HBV. The series can be described thus: inhibition of HBV DNA replication in 2.2.15 cell cultures. The settings on record: single well, dihydrochloride; for INT[…] DNA MONO.: 24 hours following the 9th day of treatment. The class given is cell-based.
Series [3] is described as follows: solubility in DMSO, MeOH, H2O. It counts as physicochemical. The settings on record: H2O.
Series [4] has as its system 2.2.15 cells. The series can be described thus: toxicity analysis, neutral red dye uptake in 2.2.15 cells. The settings on record: triplicate, ± standard deviation.
In series [5] the test system is T4 lymphocytes (CEM cell line). The experiment in a line: NCI anti-HIV screen, toxicity control in uninfected cells. It counts as cell-based.
Series [6] has as its system poly(dA-dT). The series can be described thus: ethidium displacement assay, poly(dA-dT). The settings on record: relative to ethidium 9.5 × 10^6 M^-1, average of repeat measurements.
The mark [7] stands for this setting: HIV-1 infected CEM cells, 6 days, XTT, Tables VI-X.
The mark [8] stands for this setting: dose 1.05 × 10^-8 Molar, Table VIII.
Where [9] appears, read: dose 1.09 × 10^-7 Molar, Table VIII.
The mark [10] stands for this setting: dose 3.31 × 10^-6 Molar, Table VIII.
The mark [11] stands for this setting: dose 3.31 × 10^-7 Molar, Table VIII.
The mark [12] stands for this setting: dose 3.32 × 10^-8 Molar, Table VIII.
Setting [13] is: dose […] 10^-6 Molar, Table VIII.
[14] abbreviates: dose 1.79 × 10^-6 Molar, Table VI.
Where [15] appears, read: dose 1.79 × 10^-7 Molar, Table VI.
The mark [16] stands for this setting: dose 1.79 × 10^-8 Molar, Table VI.
Where [17] appears, read: dose 5.66 × 10^-6 Molar, Table VI.
Where [18] appears, read: dose 5.67 × 10^-7 Molar, Table VI.
Setting [19] is: dose 5.68 × 10^-8 Molar, Table VI.
Setting [20] is: dose 5.68 × 10^-9 Molar, Table VI.
Where [21] appears, read: dose 1.34 × 10^-3 Molar, Table VII.
The mark [22] stands for this setting: dose 1.34 × 10^-4 Molar, Table VII.
[23] abbreviates: dose 1.35 × 10^-5 Molar, Table VII.
[24] abbreviates: dose 1.35 × 10^-6 Molar, Table VII.
Setting [25] is: dose 4.26 × 10^-4 Molar, Table VII.
Setting [26] is: dose 4.26 × 10^-5 Molar, Table VII.
Setting [27] is: dose 4.27 × 10^-6 Molar, Table VII.
[28] abbreviates: dose 4.28 × 10^-7 Molar, Table VII.

Results on five compounds are retold here after US5616606A, “Oligopeptide antiretroviral agents” (priority 1995, dated 1997).

Several values for one entry are separate records, joined by “and”; a condition that tells them apart may be missing. Equal entries are not always repeated. Where two headings read alike, the source gives them in different places. Bounds are passed on as bounds.

One may read the EC50 as the concentration at which the effect is half-maximal. Low readings indicate a more potent agent, high ones a less potent agent. One may read the IC50 as the concentration that inhibits the measured activity by half. Read a low IC50 as inhibition by little substance.

`Cl.Cl.Cn1cc(NC(=O)c2cc(NC(=O)/C=C\C(=O)Nc3cc(C(=O)Nc4cc(C(=O)NCCC(=N)N)n(C)c4)n(C)c3)cn2C)cc1C(=O)NCCC(=N)N` [Compound 22b, N,N'-Di(1-methyl-2-carboxamido(3-(proprionamidine-4-pyrrole]-4-pyrrolyl)maleamidedihydrochloride]: the values for the EC50 in series [1] (setting [7]) and in series [1] (Table XI) were 4040 nM and 350 nM, respectively.
Regarding `Cl.Cl.Cn1cc(NC(=O)c2cc(NC(=O)CCCCC(=O)Nc3cc(C(=O)Nc4cc(C(=O)NCCC(=N)N)n(C)c4)n(C)c3)cn2C)cc1C(=O)NCCC(=N)N` [Compound 7, N,N'-Di(1-methyl-2-[1-methyl-2-carboxamido(3-proprionamidine)-4-pyrrole]-4-pyrrolyl) adipamide dihydrochloride], the “INT[…] DNA MONO.” value was 2.1 pg/μg CELL DNA and 2.3 pg/μg CELL DNA and 2.2 pg/μg CELL DNA and 2.6 pg/μg CELL DNA in series [2] (10 μM); 2.7 pg/μg CELL DNA and 2.5 pg/μg CELL DNA and 2.3 pg/μg CELL DNA in series [2] (50 μM). In addition, in series [2] (10 μM, day 0), the “HBV VIRION DNA DAY 0” value is 75 pg/ml CULTURE MEDIUM and 92 pg/ml CULTURE MEDIUM and 60 pg/ml CULTURE MEDIUM and 55 pg/ml CULTURE MEDIUM. For the same compound, the “HBV VIRION DNA DAY 6” value in series [2] (10 μM) is 68 pg/ml CULTURE MEDIUM and 67 pg/ml CULTURE MEDIUM and 57 pg/ml CULTURE MEDIUM and 50 pg/ml CULTURE MEDIUM; in series [2] (50 μM), 67 pg/ml CULTURE MEDIUM and 75 pg/ml CULTURE MEDIUM and 83 pg/ml CULTURE MEDIUM and 69 pg/ml CULTURE MEDIUM. The “HBV VIRION DNA DAY 9” value is 56 pg/ml CULTURE MEDIUM and 57 pg/ml CULTURE MEDIUM and 87 pg/ml CULTURE MEDIUM and 58 pg/ml CULTURE MEDIUM in series [2] (10 μM); 63 pg/ml CULTURE MEDIUM and 68 pg/ml CULTURE MEDIUM and 77 pg/ml CULTURE MEDIUM and 66 pg/ml CULTURE MEDIUM in series [2] (50 μM, zero = undetectable, cutoff 0.1 pg/ml). Moreover, in series [3], the “Solubility in H2O” value is recorded as “good”. Further, the “NEUTRAL RED DYE UPTAKE” value in series [4] (30 μg/ml) worked out at 102 ± 1 % OF CONTROL; in series [4] (300 μg/ml), 98 ± 2 % OF CONTROL.
With `Cl.Cl.Cn1cc(NC(=O)c2cc(NC(=O)/C=C/C(=O)Nc3cc(C(=O)Nc4cc(C(=O)NCCC(=N)N)n(C)c4)n(C)c3)cn2C)cc1C(=O)NCCC(=N)N` [Compound 21b, N,N'-di[1-methyl-2-[1-methyl-2-carboxamido(3-propionamidine)-4-pyrrole]-4-4pyrrolyl] fumaride dihydrochloride], the “[…] % of Control” value in series [5] (setting [8]) is given as 83.05 % of Control; in series [5] (setting [9]) it was 90.26 % of Control; in series [5] (setting [10]), 151.83 % of Control; in series [5] (setting [11]), 88.21 % of Control; in series [5] (setting [12]), 67.56 % of Control; in series [5] (setting [13]), 83.87 % of Control. The figures for the concentration for a half-maximal effect (EC50) in series [1] (setting [7]) and in series [1] (Table XI) were 1670 nM and 1370 nM, respectively. The “INFECTED RESPONSE % of Control” value in series [1] (setting [8]) is given as 18.00 % of Control; in series [1] (setting [9]), 26.15 % of Control; in series [1] (setting [10]) it was 96.78 % of Control; in series [1] (setting [11]), 20.00 % of Control; in series [1] (setting [12]), 22.96 % of Control; in series [1] (setting [13]), 38.90 % of Control. The compound further returned a Kapp in series [6] of 4.9e+07 M⁻¹.
As for `Cl.Cl.Cn1cc(NC(=O)c2cc(NC(=O)c3ccc(C(=O)Nc4cc(C(=O)Nc5cc(C(=O)NCCC(=N)N)n(C)c5)n(C)c4)cc3)cn2C)cc1C(=O)NCCC(=N)N` [Compound 19b, N,N'-di[1-methyl-2-[1-methyl-2-carboxamido(3-propionamidine)-4-pyrrole]-4-pyrrolyl] terephthalamide dihydrochloride], the “[…] % of Control” value in series [5] is on record as 192.17 % of Control; in series [5] (setting [14]), 136.50 % of Control; in series [5] (setting [15]) it was 92.72 % of Control; in series [5] (setting [16]), 92.56 % of Control; in series [5] (setting [17]) it was 164.46 % of Control; in series [5] (setting [18]) it was 88.21 % of Control. Further, the “[…] % of Control” value is 94.69 % of Control in series [5] (setting [19]) and 68.62 % of Control in series [5] (setting [20]). The IC50 is 17.9 µM in series [5] (Table XI) and > 1.79 × 10^-5 Molar in series [5] (uninfected CEM cells, 6 days, XTT, Tables VI-X). Moreover, the EC50 in series [1] (setting [7]) was determined as 2080 nM; in series [1] (Table XI), 1210 nM. Besides, the “INFECTED RESPONSE % of Control” value is on record as 167.25 % of Control in series [1] (dose 1.79 × 10^-5 Molar, Table VI); 51.73 % of Control in series [1] (setting [14]); 29.97 % of Control in series [1] (setting [15]); 33.00 % of Control in series [1] (setting [16]); 134.54 % of Control in series [1] (setting [17]); 28.86 % of Control in series [1] (setting [18]). The “INFECTED RESPONSE % of Control” value is 23.70 % of Control in series [1] (setting [19]) and 39.64 % of Control in series [1] (setting [20]). In series [6], the Kapp turned out to be 4.3e+07 M⁻¹.
Turning to `Cl.Cl.Cn1cc(NC(=O)c2cc(NC(=O)c3cccc(C(=O)Nc4cc(C(=O)Nc5cc(C(=O)NCCC(=N)N)n(C)c5)n(C)c4)c3)cn2C)cc1C(=O)NCCC(=N)N` [Compound 20b, N,N'-di[1-methyl-2-[1-methyl-2-carboxamido(3-propionamidine)-4-pyrrole]-4-pyrrolyl] isophthalamide dihydrochloride], the “[…] % of Control” value is given as 10.39 % of Control in series [5] (setting [21]); 142.80 % of Control in series [5] (setting [22]); 117.76 % of Control in series [5] (setting [23]); 131.95 % of Control in series [5] (setting [24]); -0.29 % of Control in series [5] (setting [25]); 123.27 % of Control in series [5] (setting [26]). Also, the results for the “[…] % of Control” value in series [5] (setting [27]) and in series [5] (setting [28]) were 123.64 % of Control and 116.38 % of Control, respectively. In addition, the EC50 in series [1] (setting [7]) worked out at 3550 nM. The “INFECTED RESPONSE % of Control” value in series [1] (setting [21]) was 4.26 % of Control; in series [1] (setting [22]), 63.57 % of Control; in series [1] (setting [23]), 117.45 % of Control; in series [1] (setting [24]) it was 29.25 % of Control; in series [1] (setting [25]) it was 0.02 % of Control; in series [1] (setting [26]) it was 120.68 % of Control. Also, the “INFECTED RESPONSE % of Control” value in series [1] (setting [27]) was 64.76 % of Control; in series [1] (setting [28]), 48.47 % of Control. This compound registered a Kapp in series [6] of 4.9e+07 M⁻¹.
